The values that follow come from ChEMBL document CHEMBL5500363, “Discovery of novel ocotillol derivatives modulating glucocorticoid receptor/NF-κB signaling for the treatment of sepsis” (Eur J Med Chem, 2024).

Data set [1] has as its system RAW264.7. The experiment in a line: Cytotoxicity against mouse RAW264.7 cells assessed as cell viability at 40 uM incubated for 24 hrs by MTT assay. The note with it: raw264.7, 24 h. In kind it is toxicity, cell-based. (Tetrazolium assays rely on reduction of a dye to a coloured formazan, in cell work by metabolically active cells.)
Data set [2] concerns RAW264.7. Briefly: Downregulation of glucocorticoid receptor in LPS-treated mouse RAW264.7 cells at 1 uM incubated for 24 hrs by qRT-PCR analysis. In kind it is functional, cell-based.
The test system of data set [3] is RAW264.7. The experiment in a line: Downregulation of glucocorticoid receptor in mouse RAW264.7 cells at 1 uM incubated for 24 hrs by Western blot analysis. In kind it is functional, cell-based. For orientation: A western blot detects proteins with antibodies after separation by electrophoresis.
For data set [4], the system named is RAW264.7. Briefly: Anti-inflammatory activity in mouse RAW264.7 cells assessed as decrease in LPS-induced p65 phosphorylation at 20 uM pretreated for 2 hrs followed by LPS stimulation for 24 hrs by Western blot analysis. It counts as functional, cell-based. Conditions: time 26.0 hrs.
Data set [5] has as its system Mus musculus. The experiment in a line: Anti-septic activity in LPS-induced sepsis BALB/c mouse assessed as reduction in serum ALT level at 30 mg/kg administered via gavage for 3 days followed by LPS treatment for 6 hrs. Conditions: time 78.0 hrs. It counts as functional, organism-based.
The subject of data set [6] is RAW264.7. The experiment in a line: Anti-inflammatory activity in LPS-treated mouse RAW264.7 cells assessed as reversal of nuclear translocation of p65 at 20 uM pretreated for 2 hrs followed by LPS stimulation for 24 hrs by immunofluorescence analysis. It counts as functional, cell-based. The note with it: time 26.0 hrs.
The subject of data set [7] is RAW264.7. Briefly: Anti-inflammatory activity in mouse RAW264.7 cells assessed as decrease in LPS-induced I-kappaB-alpha phosphorylation at 20 uM pretreated for 2 hrs followed by LPS stimulation for 24 hrs by Western blot analysis. In kind it is functional, cell-based. The note with it: time 26.0 hrs.
Data set [8] relates to RAW264.7. Briefly: Inhibition of LPS-induced NO production in mouse RAW264.7 cells at 5 uM pretreated for 2 hrs followed by LPS stimulation for 24 hrs by Griess assay relative to control. The note with it: time 26 hrs. In kind it is functional. In general terms: The Griess reaction detects nitrite, a stable product of nitric oxide.
The target of data set [9] is T1, Glucocorticoid receptor (Mus musculus) (UniProt P06537).
T1 sequence (whole entry): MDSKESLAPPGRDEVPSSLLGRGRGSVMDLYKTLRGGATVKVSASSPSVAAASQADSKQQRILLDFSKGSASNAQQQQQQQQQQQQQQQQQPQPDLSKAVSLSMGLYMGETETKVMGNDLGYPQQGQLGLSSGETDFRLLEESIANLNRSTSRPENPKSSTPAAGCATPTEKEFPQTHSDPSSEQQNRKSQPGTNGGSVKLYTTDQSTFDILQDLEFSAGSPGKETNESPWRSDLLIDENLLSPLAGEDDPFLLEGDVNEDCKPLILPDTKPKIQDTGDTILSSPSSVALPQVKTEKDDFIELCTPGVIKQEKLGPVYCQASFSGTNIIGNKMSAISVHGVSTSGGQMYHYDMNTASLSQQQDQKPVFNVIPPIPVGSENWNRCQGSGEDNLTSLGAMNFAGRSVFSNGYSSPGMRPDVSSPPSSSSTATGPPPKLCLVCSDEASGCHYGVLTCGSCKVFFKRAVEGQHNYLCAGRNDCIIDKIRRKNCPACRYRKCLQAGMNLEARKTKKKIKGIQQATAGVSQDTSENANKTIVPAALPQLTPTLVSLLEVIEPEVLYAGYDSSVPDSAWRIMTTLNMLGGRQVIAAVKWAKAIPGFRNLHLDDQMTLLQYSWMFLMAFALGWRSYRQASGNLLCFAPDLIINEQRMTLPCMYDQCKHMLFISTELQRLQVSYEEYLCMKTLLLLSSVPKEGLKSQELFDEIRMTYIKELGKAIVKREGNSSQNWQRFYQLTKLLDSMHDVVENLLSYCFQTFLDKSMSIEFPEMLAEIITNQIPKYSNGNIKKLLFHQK
Briefly: Stabilization of glucocorticoid receptor in mouse RAW264.7 cells assessed as blockade of CHX-induced protein degradation at 20 uM incubated for 24 hrs by Western blot analysis. In kind it is cell-based.

Data set [10] concerns Mus musculus. The experiment in a line: Anti-septic activity in LPS-induced sepsis BALB/c mouse assessed as reduction in serum AST level at 30 mg/kg administered via gavage for 3 days followed by LPS treatment for 6 hrs. The note with it: time 78.0 hrs. It counts as functional, organism-based.
Data set [11] has as its system Mus musculus. Briefly: Anti-septic activity in LPS-induced sepsis BALB/c mouse assessed as reduction in serum CRP level at 30 mg/kg administered via gavage for 3 days followed by LPS treatment for 6 hrs. In kind it is functional, organism-based. The note with it: time 78.0 hrs.
The subject of data set [12] is RAW264.7. Briefly: Inhibition of LPS-induced NO production in mouse RAW264.7 cells at 10 uM pretreated for 2 hrs followed by LPS stimulation for 24 hrs by Griess assay relative to control. Conditions: time 26 hrs. It counts as functional.
Data set [13] concerns Mus musculus. Briefly: Downregulation of p65 phosphorylation in liver of LPS-induced sepsis BALB/c mouse model at 7.5 to 30 mg/kg administered via gavage for 3 days followed by LPS treatment for 6 hrs by Western blot analysis. In kind it is functional, organism-based. The note with it: dose 7.5-30 mg/kg, time 78.0 hrs.
Data set [14] relates to RAW264.7. The experiment in a line: Inhibition of LPS-induced NO production in mouse RAW264.7 cells pretreated for 2 hrs followed by LPS stimulation for 24 hrs by Griess assay. In kind it is functional, cell-based.
The test system of data set [15] is Mus musculus. Briefly: Downregulation of I-kappa-B-alpha phosphorylation in liver of LPS-induced sepsis BALB/c mouse model at 7.5 to 30 mg/kg administered via gavage for 3 days followed by LPS treatment for 6 hrs by Western blot analysis. It counts as functional, organism-based. Conditions: dose 7.5-30 mg/kg, time 78.0 hrs.
In data set [16] the test system is RAW264.7. Briefly: Inhibition of LPS-induced NO production in mouse RAW264.7 cells at 20 uM pretreated for 2 hrs followed by LPS stimulation for 24 hrs by Griess assay relative to control. In kind it is functional. Conditions: time 26 hrs.
Data set [17] deals with RAW264.7. The experiment in a line: Effect on KLF9 mRNA expression in mouse RAW264.7 cells by qPCR analysis. It counts as functional, cell-based.
Data set [18] is described as follows: Cytotoxicity against mouse RAW264.7 cells assessed as cell viability at 40 uM incubated for 24 hrs by MTT assay relative to control. It counts as toxicity, cell-based. The note with it: read-out: Activity.

Activity calls are given as the source filed them. The rule behind the calls is not given here.

Regarding `CC(C)(C)OC(=O)NCCCCCC(=O)Nc1nc2c(s1)C[C@]1(C)[C@H]3C[C@@H](O)[C@@H]4C([C@]5(C)CC[C@H](C(C)(C)O)O5)CC[C@@]4(C)[C@]3(C)CC[C@H]1C2(C)C` (some centres not stated), in the data set with RAW264.7 [1], the Activity result is “Toxic”.

`CC(=O)Nc1nc2c(s1)C[C@]1(C)[C@H]3C[C@@H](O)[C@@H]4C([C@]5(C)CC[C@@H](C(C)(C)O)O5)CC[C@@]4(C)[C@]3(C)CC[C@H]1C2(C)C` (some centres not stated): in the data set with RAW264.7 [1], the Activity entry is on record as “Toxic”.

Consider `C[C@@H]1C[C@H]2[C@@H]3CCC4=CC(=O)C=C[C@]4(C)[C@@]3(F)[C@@H](O)C[C@]2(C)[C@@]1(O)C(=O)CO`, for which the outcome in the data set with RAW264.7 [2] and in the data set on RAW264.7 [3] was Active.

Regarding `CC(C)(C)OC(=O)NCCCC(=O)Nc1nc2c(s1)C[C@]1(C)[C@H]3C[C@@H](O)[C@@H]4C([C@]5(C)CC[C@H](C(C)(C)O)O5)CC[C@@]4(C)[C@]3(C)CC[C@H]1C2(C)C` (some centres not stated), the Activity result in the data set with RAW264.7 [1] was “Toxic”.

Turning to `Cc1nnc(NC(=O)CCC(=O)O[C@H]2CC[C@]3(C)[C@H]4C[C@@H](O)[C@@H]5C([C@]6(C)CC[C@@H](C(C)(C)O)O6)CC[C@@]5(C)[C@]4(C)CC[C@H]3C2(C)C)s1` (some centres not stated), in the data set with RAW264.7 [1], the Activity result is on record as “Toxic”.

As for `CC(C)(O)[C@H]1CC[C@@](C)(C2CC[C@]3(C)[C@@H]2[C@H](O)C[C@@H]2[C@@]4(C)Cc5sc(NC(=O)C(F)(F)F)nc5C(C)(C)[C@@H]4CC[C@]23C)O1` (some centres not stated), the Activity entry in the data set on RAW264.7 [1] was “Toxic”.

Regarding `CC(C)(O)[C@H]1CC[C@@](C)(C2CC[C@]3(C)[C@@H]2[C@H](O)C[C@@H]2[C@@]4(C)CC[C@H](OC(=O)CCC(=O)Nc5nnc(Br)s5)C(C)(C)[C@@H]4CC[C@]23C)O1` (some centres not stated), the Activity entry in the data set with RAW264.7 [1] is on record as “Toxic”.

Regarding `Cc1nnc(NC(=O)CCC(=O)O[C@H]2CC[C@]3(C)[C@H]4C[C@@H](O)[C@@H]5C([C@]6(C)CC[C@H](C(C)(C)O)O6)CC[C@@]5(C)[C@]4(C)CC[C@H]3C2(C)C)s1` (some centres not stated), the Activity result in the data set with RAW264.7 [1] is “Toxic”.

Take `CC(C)=CCC[C@@](C)(O)C1CC[C@]2(C)[C@@H]1[C@H](O)C[C@@H]1[C@@]3(C)CC[C@H](O)C(C)(C)[C@@H]3CC[C@]12C` (some centres not stated): the outcome with RAW264.7 [4], with Mus musculus [5], in the data set on RAW264.7 [6], in the data set on RAW264.7 [7], in the data set with Mus musculus [10] and in the data set with Mus musculus [11] was Active. Moreover, the inhibition (in general, the change of the read-out against control, counted positive when it falls) at 5 µM in the data set with RAW264.7 [8] was 7.09%. In addition, the result (in [9]; in the data set with Mus musculus [13]; in the data set on Mus musculus [15]; with RAW264.7 [17]) was inactive. In addition, the inhibition at 10 µM in the data set on RAW264.7 [12] came out at 11.2%. Also, in the data set with RAW264.7 [14], the IC50 (as a rule, the concentration that gives 50% inhibition) amounted to 34.4 µM. Moreover, the inhibition at 20 µM with RAW264.7 [16] came out at 31.4%.

In the case of `CC(C)(C)OC(=O)NCCCCCCCC(=O)Nc1nc2c(s1)C[C@]1(C)[C@H]3C[C@@H](O)[C@@H]4C([C@]5(C)CC[C@H](C(C)(C)O)O5)CC[C@@]4(C)[C@]3(C)CC[C@H]1C2(C)C` (some centres not stated), in the data set with RAW264.7 [1], the Activity result was “Toxic”.

As to `CC(C)(C)OC(=O)NCCCC(=O)Nc1nc2c(s1)C[C@]1(C)[C@H]3C[C@@H](O)[C@@H]4C([C@]5(C)CC[C@@H](C(C)(C)O)O5)CC[C@@]4(C)[C@]3(C)CC[C@H]1C2(C)C` (some centres not stated), the Activity entry in the data set with RAW264.7 [1] was “Toxic”.

With `CC(C)(C)OC(=O)NCCCCCCCCCCC(=O)Nc1nc2c(s1)C[C@]1(C)[C@H]3C[C@@H](O)[C@@H]4C([C@]5(C)CC[C@H](C(C)(C)O)O5)CC[C@@]4(C)[C@]3(C)CC[C@H]1C2(C)C` (some centres not stated), in the data set on RAW264.7 [1], the Activity result was “Toxic”.

With `CC(=O)Nc1nc2c(s1)C[C@]1(C)[C@H]3C[C@@H](O)[C@@H]4C([C@]5(C)CC[C@H](C(C)(C)O)O5)CC[C@@]4(C)[C@]3(C)CC[C@H]1C2(C)C` (some centres not stated), the Activity result in the data set on RAW264.7 [1] is “Toxic”.

Consider `CC(C)(O)[C@@H]1CC[C@@](C)(C2CC[C@]3(C)[C@@H]2[C@H](O)C[C@@H]2[C@@]4(C)CC[C@H](OC(=O)CCC(=O)Nc5nnc(Br)s5)C(C)(C)[C@@H]4CC[C@]23C)O1` (some centres not stated), for which, in the data set on RAW264.7 [8], the inhibition at 5 µM is 34.8%. Moreover, the inhibition at 10 µM with RAW264.7 [12] was determined as 47%. Besides, the IC50 in the data set with RAW264.7 [14] stood at 10.3 µM. In data set [18], the viability at 24 h, 40 µM is above 90%. The inhibition at 20 µM with RAW264.7 [16] turned out to be 70.2%.

As for `CC(C)(C)OC(=O)CCC(=O)Nc1nc2c(s1)C[C@]1(C)[C@H]3C[C@@H](O)[C@@H]4C([C@]5(C)CC[C@H](C(C)(C)O)O5)CC[C@@]4(C)[C@]3(C)CC[C@H]1C2(C)C` (some centres not stated), in the data set on RAW264.7 [8], the inhibition at 5 µM was determined as 11.1%. The inhibition at 10 µM in the data set on RAW264.7 [12] is 22.5%. The IC50 in the data set with RAW264.7 [14] was 16.5 µM. Besides, the viability at 24 h, 40 µM in data set [18] was above 90%. Also, the inhibition at 20 µM in the data set on RAW264.7 [16] turned out to be 39.1%.
